Measurements taken from article PMC10874388, “Cyclic peptides discriminate BCL-2 and its clinical mutants from BCL-XL by engaging a single-residue discrepancy” (Nature Communications, 2024).
“And” between values parts separate entries of the source, which are not always exact repeats. Equal entries are not always repeated.

How the values were obtained:
Jurkat cells [1] = assay: Mitochondrial membrane potential (JC-1), flow cytometry and fluorescence microscopy; type: cell-based; details: Jurkat
A549 cells (control) = assay: Cell viability assay (CellTiter-Glo), normal A549 (control); type: cell-based; details: for luminescence reading, everage: mean of 6 wells
Procedure: The cell lines Jurkat (TIB-152), El4 (TIB-39), Daudi (ccl-213), RS4:11 (crl-1873), A549 (ccl-185), HepG2 (hb-8065) and PANC-1 (crl-1469) were purchased from ATCC (American Type Culture Collection), and MGC-803 (C6582) was purchased from Beyotime (https://www.beyotime.com/product/C6582.htm). […] Daudi and RS4:11 cells were cultured in RPMI-1640 medium (HyClone, SH30809.01) and 10% FBS (Gibco, 10099-141), whereas HepG2, MGC-803 and PANC-1 cells were cultured in MDEM (HyClone, SH30243.01). Cells were maintained at 37 °C under a humidified, 5% (v/v) CO2-containing atmosphere.
Cell viability was measured using CellTiter-Glo® 2.0 Reagent (Promega, G9242). […] After different inhibitors were added into serum-free medium and cultured for 4 h (RS4:11 for 6 h), FBS were supplemented to 10% and then incubated totally for 24 h or 48 h. Finally, the IC50 values were calculated based on measurements using a microplate reader (Thermo, Varioskan LUX). Statistical analysis was performed using software GraphPad Prism 7.0.

Jurkat cells [2] = assay: Cytochrome C release assay (mitochondrial cytochrome C, Western blot); type: cell-based; details: 2.5 μM, 12 h
Procedure: Jurkat cells at 2 ×10^6 cells/mL were incubated in the presence of DMSO or 50 μM BIP-V5 inhibitor[54] (Yuanye Biotechnology Co., Ltd, 579492-81-2) for 24 h. Two groups of above treated cells were each divided into four groups and incubated in the presence of DMSO, venetoclax at 2.5 μM, cp4-TAT at 20 μM, or cp5-TAT at 15 μM in serum-free RPMI medium for 4 h. Then the medium was supplemented with FBS to 10% and incubated for another 8 h. After being treated by venetoclax or CPs for totally 12 h, cell were processed with the Mitochondrial Separation Kit (Beyotime, C3601) to extract mitochondria. Cytochrome C in mitochondria and BAX proteins in the whole cells were detected by Western blot.
Cell lysates containing equal amounts of total proteins were denatured, subjected to electrophoresis on SDS-PAGE gels, and transferred onto nitrocellulose membranes. The blots were blocked with 5% skim milk and then incubated at 4 °C overnight with the corresponding primary antibodies against BCL-2 (dilution 1:1000, Abcam, ab194583), BCL-XL (dilution 1:1000, Abcam, ab32370), anti-Flag (dilution 1:1000, Sigma, F1804), cytochrome C (dilution 1:1000, Beyotime, AC909), BAX (dilution 1:1000, Beyotime, AB026), α-Tubulin (dilution 1:3000, Abcam, ab7291), or β-Actin (dilution 1:3000, Abcam, ab8227). […]

BCL-2 G101V = test system: BCL-2 G101V; parameters: method as in PMID 31160589; details: SPR assays; cited from earlier work
[3] = control A549, ABT-199 0.390625 uM
[4] = control A549, ABT-199 0.78125 uM
[5] = control A549, ABT-199 1.5625 uM

Compound: CC1(C)CCC(CN2CCN(c3ccc(C(=O)NS(=O)(=O)c4ccc(NCC5CCOCC5)c([N+](=O)[O-])c4)c(Oc4cnc5[nH]ccc5c4)c3)CC2)=C(c2ccc(Cl)cc2)C1 [venetoclax]
- ΔΨm (ratio of red over green fluorescence, Q1/Q3) (Jurkat cells [1]; 4 h treatment, JC-1, flow cytometry, n = 3): 0.1
- Relative ΔΨm by JC-1 fluorescence staining (microscopy) (Jurkat cells [1]; 24 h treatment (Supplementary Fig. 13)): red fluorescence almost disappeared
- average (raw viability reading) (A549 cells (control); A549, ABT199 0.3125 uM): 403300
- inhibition rate (A549 cells (control); A549, ABT199 0.3125 uM, fraction, replicates): 0.1384 and 0.2199 and 0.2562 and 0.2483 and 0.2515 and 0.3247
- raw viability reading (A549 cells (control); A549, ABT199 0.3125 uM, replicates): 394600 and 398800 and 397100 and 358300 and 457100 and 413900
- average (raw viability reading) (A549 cells (control); A549, ABT199 0.625 uM): 437733
- inhibition rate (A549 cells (control); A549, ABT199 0.625 uM, fraction, replicates): 0.1102 and 0.1614 and 0.1995 and 0.1861 and 0.1882 and 0.2042
- raw viability reading (A549 cells (control); A549, ABT199 0.625 uM, replicates): 424700 and 431800 and 430700 and 422200 and 472100 and 444900
- average (raw viability reading) (A549 cells (control); A549, ABT199 1.25 uM): 415750
- inhibition rate (A549 cells (control); A549, ABT199 1.25 uM, fraction, replicates): 0.1437 and 0.2152 and 0.2434 and 0.2293 and 0.2263 and 0.2404
- raw viability reading (A549 cells (control); A549, ABT199 1.25 uM, replicates): 401400 and 408900 and 410500 and 403000 and 454300 and 416400
- average (raw viability reading) (A549 cells (control); A549, ABT199 2.5 uM): 279550
- inhibition rate (A549 cells (control); A549, ABT199 2.5 uM, fraction, replicates): 0.4238 and 0.4647 and 0.4862 and 0.4847 and 0.4854 and 0.4937
- raw viability reading (A549 cells (control); A549, ABT199 2.5 uM, replicates): 272600 and 273400 and 273000 and 268600 and 305700 and 284000
- average (raw viability reading) (A549 cells (control); A549, ABT199 5 uM): 231967
- inhibition rate (A549 cells (control); A549, ABT199 5 uM, fraction, replicates): 0.5341 and 0.5546 and 0.5723 and 0.5614 and 0.5684 and 0.5859
- raw viability reading (A549 cells (control); A549, ABT199 5 uM, replicates): 226900 and 232700 and 229000 and 219700 and 247200 and 236300
- average (raw viability reading) (A549 cells (control); A549, ABT199 10 uM): 181100
- inhibition rate (A549 cells (control); A549, ABT199 10 uM, fraction, replicates): 0.6325 and 0.6605 and 0.666 and 0.6628 and 0.6649 and 0.6653
- raw viability reading (A549 cells (control); A549, ABT199 10 uM, replicates): 177200 and 178900 and 177800 and 177600 and 195000 and 180100
- average (raw viability reading) (A549 cells (control); A549, ABT199 20 uM): 174683
- inhibition rate (A549 cells (control); A549, ABT199 20 uM, fraction, replicates): 0.6679 and 0.6686 and 0.6762 and 0.6713 and 0.6664 and 0.6741
- raw viability reading (A549 cells (control); A549, ABT199 20 uM, replicates): 171800 and 174400 and 177000 and 172900 and 176200 and 175800
- inhibition at 0.390625 µM (A549 cells (control); Homo sapiens, A549, control A549, ABT-199 0.390625 uM, replicate wells, read-out: inhibition rate): 26%
- inhibition at 0.78125 µM (A549 cells (control); Homo sapiens, A549, control A549, ABT-199 0.78125 uM, replicate wells, read-out: inhibition rate): 33%
- inhibition at 1.5625 µM (A549 cells (control); Homo sapiens, A549, control A549, ABT-199 1.5625 uM, replicate wells, read-out: inhibition rate): 61%
- inhibition at 3.125 µM (A549 cells (control); Homo sapiens, A549, control A549, ABT-199 3.125 uM, replicate wells, read-out: inhibition rate): 75%
- inhibition at 6.25 µM (A549 cells (control); Homo sapiens, A549, control A549, ABT-199 6.25 uM, replicate wells, read-out: inhibition rate): 76%
- inhibition at 12.5 µM (A549 cells (control); Homo sapiens, A549, control A549, ABT-199 12.5 uM, replicate wells, read-out: inhibition rate): 81%
- inhibition at 25 µM (A549 cells (control); Homo sapiens, A549, control A549, ABT-199 25 uM, replicate wells, read-out: inhibition rate): 87%
- inhibition at 50 µM (A549 cells (control); Homo sapiens, A549, control A549, ABT-199 50 uM, replicate wells, read-out: inhibition rate): 93%
- inhibition at 100 µM (A549 cells (control); Homo sapiens, A549, control A549, ABT-199 100 uM, replicate wells, read-out: inhibition rate): 98%
- inhibition at 200 µM (A549 cells (control); Homo sapiens, A549, control A549, ABT-199 200 uM, replicate wells, read-out: inhibition rate): 99%
- IC50 (A549 cells (control); Homo sapiens, A549, 48 h, CellTiter-Glo, n = 6, read-out: IC50 A549 control (original cells)): 1.1 ± 0.2 µM
- luminescence reading (raw, replicate wells) (A549 cells (control); [3]): 589100 and 474500 and 578500 and 498700 and 513300 and 511200
- luminescence reading, everage (A549 cells (control); [3]): 527550
- inhibition rate (A549 cells (control); control A549, ABT-199 0.390625 uM, replicate wells): 40% and 27% and 37% and 35% and 36%
- luminescence reading (raw, replicate wells) (A549 cells (control); [4]): 528700 and 466700 and 517300 and 470700 and 495500 and 475500
- luminescence reading, everage (A549 cells (control); [4]): 492400
- inhibition rate (A549 cells (control); control A549, ABT-199 0.78125 uM, replicate wells): 41% and 35% and 38% and 40%
- luminescence reading (raw, replicate wells) (A549 cells (control); [5]): 312000 and 314300 and 298800 and 314500 and 309000 and 290800
- luminescence reading, everage (A549 cells (control); [5]): 306567
- inhibition rate (A549 cells (control); control A549, ABT-199 1.5625 uM, replicate wells): 60% and 62% and 63%
- luminescence reading (raw, replicate wells) (A549 cells (control); control A549, ABT-199 3.125 uM): 198800 and 204700 and 191700 and 191900 and 189900 and 188800
- luminescence reading, everage (A549 cells (control); control A549, ABT-199 3.125 uM): 194300
- inhibition rate (A549 cells (control); control A549, ABT-199 3.125 uM, replicate wells): 74%
- luminescence reading (raw, replicate wells) (A549 cells (control); control A549, ABT-199 6.25 uM): 186800 and 193000 and 186700 and 177700 and 179700 and 186500
- luminescence reading, everage (A549 cells (control); control A549, ABT-199 6.25 uM): 185067
- inhibition rate (A549 cells (control); control A549, ABT-199 6.25 uM, replicate wells): 78% and 77%
- luminescence reading (raw, replicate wells) (A549 cells (control); control A549, ABT-199 12.5 uM): 154400 and 153500 and 158000 and 148200 and 149400 and 149600
- luminescence reading, everage (A549 cells (control); control A549, ABT-199 12.5 uM): 152183
- inhibition rate (A549 cells (control); control A549, ABT-199 12.5 uM, replicate wells): 80%
- luminescence reading (raw, replicate wells) (A549 cells (control); control A549, ABT-199 25 uM): 102900 and 103500 and 106000 and 102100 and 105400 and 102800
- luminescence reading, everage (A549 cells (control); control A549, ABT-199 25 uM): 103783
- luminescence reading (raw, replicate wells) (A549 cells (control); control A549, ABT-199 50 uM): 55930 and 54730 and 51960 and 49990 and 56070 and 56150
- luminescence reading, everage (A549 cells (control); control A549, ABT-199 50 uM): 54138
- inhibition rate (A549 cells (control); control A549, ABT-199 50 uM, replicate wells): 94%
- luminescence reading (raw, replicate wells) (A549 cells (control); control A549, ABT-199 100 uM): 16550 and 16810 and 16440 and 16110 and 17860 and 16240
- luminescence reading, everage (A549 cells (control); control A549, ABT-199 100 uM): 16668
- luminescence reading (raw, replicate wells) (A549 cells (control); control A549, ABT-199 200 uM): 6435 and 6601 and 7137 and 6682 and 6762 and 7490
- luminescence reading, everage (A549 cells (control); control A549, ABT-199 200 uM): 6851
- Cytochrome C level in mitochondria (Jurkat cells [2]): decreased clearly
- Reduction of binding affinity of BCL-2 to venetoclax by G101V (BCL-2 G101V): ~ 180 fold
